Results reported in patent US11285135B2 (AMGEN INC., priority 2016, dated 2022).

Target: GDP-bound protein (aa 1-169), containing both G12C and C118A amino acid substitutions (Homo sapiens, UniProt P01116, C118A/G12C)
Assay: Coupled Nucleotide Exchange Assay (SOS-mediated nucleotide exchange, AlphaScreen)
Type: biochemical
Conditions: 2 hours compound pre-incubation
Protocol: Coupled Nucleotide Exchange Assay: Purified GDP-bound […] protein (aa 1-169), containing both G12C and C118A amino acid substitutions and an N-terminal His-tag, was pre-incubated with a compound dose-response titration for 2 hours in assay buffer (25 mM HEPES pH 7.4, 10 mM MgCl2, and 0.01% Triton X-100). Following compound pre-incubation, purified SOS protein (aa 564-1049) and GTP (Roche 10106399001) were added to the assay wells and incubated for an additional hour. […] The assay plates were then read on a PerkinElmer EnVision Multilabel Reader, using AlphaScreen® technology, and data were analyzed using a 4-parameter logistic model to calculate IC50 values.

Sequence of GDP-bound protein (aa 1-169), containing both G12C and C118A amino acid substitutions (P01116 1-169 isoform P01116-2 G12C/C118A): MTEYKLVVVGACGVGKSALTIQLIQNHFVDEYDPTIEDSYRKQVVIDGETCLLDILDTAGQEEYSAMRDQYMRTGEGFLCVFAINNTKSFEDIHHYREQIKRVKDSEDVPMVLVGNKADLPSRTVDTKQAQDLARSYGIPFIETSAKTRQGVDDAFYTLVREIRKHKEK

Row | Compound | Coupled exchange IC50 [µM]
1 | C=CC(=O)N1CCN(c2nnc(C(C)c3ccccc3)c3cc(-c4c(O)cccc4F)c(Cl)cc23)CC1 (racemic) [Example 28, 1-(4-(7-chloro-6-(2-fluoro-6-hydroxyphenyl)-4-((1R)-1-phenylethyl)-1-phthalazinyl)-1-piperazinyl)-2-propen-1-one and 1-(4-(7-chloro-6-(2-fluoro-6-hydroxyphenyl)-4-((1S)-1-phenylethyl)-1-phthalazinyl)-1-piperazinyl)-2-propen-1-one] | 8.17
2 | C=CC(=O)N1CCN(c2nnc(Cc3ccccc3)c3cc(Cl)c(Cl)cc23)CC1 [Example 34, 1-(4-Acryloyl-1-piperazinyl)-4-benzyl-6,7-dichlorophthalazine] | 34.2
3 | C=CC(=O)N1CCN(c2snc3nc(-c4c(C)ccc5[nH]ncc45)c(Cl)cc23)C(C)C1 (single isomer, unassigned) [Example 2-6-1, 1-((3S)-4-(5-chloro-6-(5-methyl-1H-indazol-4-yl)[1,2]thiazolo[3,4-b]pyridin-3-yl)-3-methyl-1-piperazinyl)-2-propen-1-one or 1-((3R)-4-(5-chloro-6-(5-methyl-1H-indazol-4-yl)[1,2]thiazolo[3,4-b]pyridin-3-yl)-3-methyl-1-piperazinyl)-2-propen-1-one] | 13.0
4 | C=CC(=O)N1CCN(c2nnc(Cc3ccccc3)c3cc(Cl)c(-c4c(O)cccc4F)cc23)CC1 [Example 36, 2-(4-(4-acryloyl-1-piperazinyl)-1-benzyl-7-chloro-6-phthalazinyl)-3-fluorophenol] | 39.8
5 | C=CC(=O)N1CCN(c2nnc(OC)c3cc(Cl)c(-c4c(O)cccc4F)cc23)CC1 (single isomer, unassigned) [Example 33, 2-(4-(4-acryloyl-1-piperazinyl)-7-chloro-1-methoxy-6-phthalazinyl)-3-fluorophenol] | 103
6 | C=CC(=O)N1CCN(c2snc3nc(-c4c(F)cccc4OC)c(Cl)cc23)C(C)C1 (racemic) [Example 2-2, 1-(4-(5-chloro-6-(2-fluoro-6-methoxyphenyl)[1,2]thiazolo[3,4-b]pyridin-3-yl)-3-methyl-1-piperazinyl)-2-propen-1-one] | 12.7
7 | C=CC(=O)N1CCN(c2nnc(C3CCCC3)c3cc(-c4c(O)cccc4F)c(Cl)cc23)CC1 [Example 14, 1-(4-(7-Chloro-4-cyclopentyl-6-(2-fluoro-6-hydroxyphenyl)-1-phthalazinyl)-1-piperazinyl)-2-propen-1-one] | 2.69
8 | C=CC(=O)N1CCN(c2snc3c(F)c(-c4nc(NC)cc5ccccc45)c(Cl)cc23)CC1 [Example 24, 1-(4-(5-Chloro-7-fluoro-6-(3-(methylamino)-1-isoquinolinyl)-2,1-benzothiazol-3-yl)-1-piperazinyl)-2-propen-1-one] | 6.20
9 | C=CC(=O)N1CCN(c2snc3c(F)c(-c4c(OC)ccc5ccccc45)c(Cl)cc23)CC1 [Example 1-13, 1-(4-(5-chloro-7-fluoro-6-(2-methoxy-1-naphthalenyl)-2,1-benzothiazol-3-yl)-1-piperazinyl)-2-propen-1-one] | >10
10 | C=CC(=O)N[C@@H]1CN(c2snc3c(F)c(-c4cc(O)cc5ccccc45)c(Cl)cc23)[C@@H]1C (racemic) [Example 1-9, N-(1-(5-chloro-7-fluoro-6-(3-hydroxy-1-naphthalenyl)-2,1-benzothiazol-3-yl)-2-methyl-3-azetidinyl)-2-propenamide] | 5.92
11 | C=CC(=O)N1CCN(c2nnc(-c3ccccc3)c3cc(Cl)c(-c4c(O)cccc4F)cc23)CC1 [Example 31, 2-(4-(4-acryloyl-1-piperazinyl)-7-chloro-1-phenyl-6-phthalazinyl)-3-fluorophenol] | 123
12 | C=CC(=O)N[C@@H]1CCCN(c2snc3c(F)c(-c4cc(O)cc5ccccc45)c(Cl)cc23)C1 [Example 1-23, N-((3R)-1-(5-chloro-7-fluoro-6-(3-hydroxy-1-naphthalenyl)-2,1-benzothiazol-3-yl)-3-piperidinyl)-2-propenamide] | >250
13 | C=CC(=O)N1CCN(c2snc3c(F)c(-c4cc(O)cc5ncccc45)c(Cl)cc23)CC1 [Example 21, 1-(4-(5-chloro-7-fluoro-6-(7-hydroxy-5-quinolinyl)-2,1-benzothiazol-3-yl)-1-piperazinyl)-2-propen-1-one] | 9.41
14 | C=C(CCO)C(=O)N1CCN(c2snc3c(F)c(-c4cc(O)cc5ccccc45)c(Cl)cc23)CC1 [Example 20, 1-(4-(5-chloro-7-fluoro-6-(3-hydroxy-1-naphthalenyl)-2,1-benzothiazol-3-yl)-1-piperazinyl)-4-hydroxy-2-methylidene-1-butanone] | 78.8
15 | C=CC(=O)N1[C@@H]2CC[C@H]1CN(c1snc3c(F)c(-c4cc(O)cc5ccccc45)c(Cl)cc13)C2 [Example 1-17, 1-((1R,5S)-3-(5-chloro-7-fluoro-6-(3-hydroxy-1-naphthalenyl)-2,1-benzothiazol-3-yl)-3,8-diazabicyclo[3.2.1]octan-8-yl)-2-propen-1-one] | 63.5

Next, values leading:

Row | Coupled exchange IC50 [µM] | Compound
16 | >250 | C=CC(=O)N1CCN(c2snc3c(F)c(-c4cc(N)cc(C#N)c4)c(Cl)cc23)CC1 [Example 3-25, 3-amino-5-(5-chloro-7-fluoro-3-(4-(2-propenoyl)-1-piperazmyl)-2,1-benzothiazol-6-yl)benzonitrile]
17 | >250 | C=CC(=O)N1CCC[C@@H](Nc2snc3c(F)c(-c4cc(O)cc5ccccc45)c(Cl)cc23)C1 [Example 4-9, 1-((3R)-3-((5-chloro-7-fluoro-6-(3-hydroxynaphthalen-1-yl)benzo[c]isothiazol-3-yl)amino)piperidin-1-yl)prop-2-en-1-one]
18 | 14.2 | C=CC(=O)NC1(C)CN(c2snc3c(F)c(-c4cc(O)cc5ccccc45)c(Cl)cc23)C1 [Example 5-2, N-(1-(5-chloro-7-fluoro-6-(3-hydroxy-1-naphthalenyl)-2,1-benzothiazol-3yl)-3-methyl-3-azetidinyl)-2-propenamide]
19 | >250 | C=CC(=O)N1CCN(c2snc3c(F)c(-c4cccc5[nH]c(=O)ccc45)c(Cl)cc23)CC1 [Example 3-4, 5-(5-chloro-7-fluoro-3-(4-(2-propenoyl)-1-piperazinyl)-2,1-benzothiazol-6-yl)-2(1H)-quinolinone]
20 | 125 | C=CC(=O)N1CC(Nc2snc3c(F)c(Br)c(Cl)cc23)C1 [Example 4-7, 1-(3-((6-bromo-5-chloro-7-fluoro-2,1-benzothiazol-3-yl)amino)-1-azetidinyl)-2-propen-1-one]
21 | 11.3 | C=CC(=O)N1CCN(c2snc3c(F)c(-c4cccc5ccncc45)c(Cl)cc23)CC1 [Example 3-3, 1-(4-(5-chloro-7-fluoro-6-(8-isoquinolinyl)-2,1-benzothiazol-3-yl)-1-piperazinyl)-2-propen-1-one]
22 | >250 | C=CC(=O)NC1CN(c2snc3c(F)c(Br)c(Cl)cc23)C1 [Example 4-4, N-(1-(6-bromo-5-chloro-7-fluoro-2,1-benzothiazol-3-yl)-3-azetidinyl)-2-propenamide]
23 | 23.0 | C=C(CO)C(=O)N1CCN(c2snc3c(F)c(-c4cc(OC)cc5ccccc45)c(Cl)cc23)CC1 [Example 18-1, 1-(4-(5-chloro-7-fluoro-6-(3-methoxy-1-naphthalenyl)-2,1-benzothiazol-3-yl)-1-piperazinyl)-2-(hydroxymethyl)-2-propen-1-one]
24 | 15.1 | C=CC(=O)N1CCN(c2nnc(Cl)c3cc(-c4c(O)cccc4F)c(Cl)cc23)CC1 [Example 10-13, 1-(4-(4,7-dichloro-6-(2-fluoro-6-hydroxyphenyl)-1-phthalazinyl)-1-piperazinyl)-2-propen-1-one]
25 | 24.6 | C=C(CO)C(=O)N1CCN(c2snc3c(F)c(-c4cc(O)cc5ccccc45)c(Cl)cc23)CC1 [Example 18-3, 1-(4-(5-chloro-7-fluoro-6-(3-hydroxy-1-naphthalenyl)-2,1-benzothiazol-3-yl)-1-piperazinyl)-2-(hydroxymethyl)-2-propen-1-one]
26 | 115 | C=CC(=O)N1CCN(c2snc3c(F)c(-c4cc(O)cc5cn(C)nc45)c(Cl)cc23)CC1 [Example 19-3, 1-(4-(5-chloro-7-fluoro-6-(5-hydroxy-2-methyl-2H-indazol-7-yl)-2,1-benzothiazol-3-yl)-1-piperazinyl)-2-propen-1-one]
27 | 177 | C=CC(=O)N1CCC[C@@H](Nc2snc3c(F)c(Br)c(Cl)cc23)C1 [Example 4-8, 1-((3R)-3-((6-bromo-5-chloro-7-fluoro-2,1-benzothiazol-3-yl)amino)-1-piperidinyl)-2-propen-1-one]
28 | 6.49 | C=CC(=O)N1CCN(c2snc3c(F)c(-c4cc(NC(C)=O)ccc4C)c(Cl)cc23)CC1 [Example 3-13, N-(3-(5-chloro-7-fluoro-3-(4-(2-propenoyl)-1-piperazinyl)-2,1-benzothiazol-6-yl)-4-methylphenyl)acetamide]
29 | >250 | C=CC(=O)N1CC2(C1)CN(c1snc3c(F)c(Br)c(Cl)cc13)C2 [Example 4-2, 1-(6-(6-bromo-5-chloro-7-fluoro-2,1-benzothiazol-3-yl)-2,6-diazaspiro[3.3]hept-2-yl)-2-propen-1-one]
30 | >250 | C=CC(=O)NC1CN(c2snc3c(F)c(-c4cc(OC)cc5ccccc45)c(Cl)cc23)C1 [Example 4-5, N-(1-(5-chloro-7-fluoro-6-(3-methoxy-1-naphthalenyl)-2,1-benzothiazol-3-yl)-3-azetidinyl)-2-propenamide]
